Results taken from US20220411811A1, “SYNTHETIC TOOLKIT FOR PLANT TRANSFORMATION” (priority 2021, published 2022).

Test system: A. tumefaciens NTL4
Type: cell-based, Agrobacterium tumefaciens
Details: for highest expression level (green fluorescence intensity, sfgfp reporter): highest induction concentration 10^3 μM; for basal expression level (green fluorescence intensity, sfgfp reporter): lowest induction concentration 10^−3 μM
Procedure: GFP measurement. An inoculum of A. tumefaciens was grown overnight to stationary phase and then transferred to fresh media at a 1:100 dilution. The new inocula were added with inducers to a final concentration of 1×10^−3 to 1×10^3 μmol/ml when their optical density at 600 nm (OD600) reached 0.5. After 6 h of incubation, cells were collected and resuspended in 1×PBS buffer. Then 100 μL of suitably diluted cultures were added into 96-well microtiter plates. OD600 and relative green fluorescence were measured by a BioTek® microplate reader H1. Congo red plate assay. The dye was dissolved in ddH2O at 20 mg ml^−1 and passed through 0.2 μm filters immediately. Four ml of filtered Congo Red was added per L (final concentration: 80 μg/ml) to generate LB-CR agar medium. The overnight cultured cultures were diluted to an OD600 of 1.0. 10 μl cultures were plated on LB-CR agar with appropriate antibiotics, followed by incubation at 30° C. for 24 hours.
A reliable induction system is required to achieve precise control of gene expression. […] An ori from the broad host-range plasmid pBBR1, which propagates in both E. coli and A. tumefaciens, was utilized for the origin of replication (Szpirer et al., J Bacteriol. 183:2101-2110, 2001). To evaluate the performance of these inducible systems, a green fluorescence protein gene (sfgfp) was utilized as a reporter gene, and placed under the control of the corresponding inducible promoters, Ptac, Pcym, Pvan, PBAD, Pug and Psal, respectively. The repressor genes of the inducible systems (lacI, cymR, vanR, araE, ttgR and nahR) were driven by a common constitutive promoter (Pcon). The resulting inducible “expression circuits” were transformed into A. tumefaciens NTL4.
To evaluate these induction systems, green fluorescence intensities of cells transformed with the plasmids were measured at various concentrations of inducers, ranging from 10^−3 to 10^3 μM.

| SMILES | highest expression level (green fluorescence intensity, sfgfp reporter) | basal expression level (green fluorescence intensity, sfgfp reporter) |
| --- | --- | --- |
| CC(C)S[C@@H]1O[C@H](CO)[C@H](O)[C@H](O)[C@H]1O [IPTG, β-d-1-thiogalactopyranoside] | 5.2×10^5 | 6.6×10^4 |
| O=C[C@@H](O)[C@H](O)[C@H](O)CO [Ara, arabinose] | 1.8×10^3 | 5.5×10^2 |
| CC(C)c1ccc(C(=O)O)cc1 [Cum, cumic acid] | 3×10^4 | 1.4×10^2 |
| O=C1C[C@@H](c2ccc(O)cc2)Oc2cc(O)cc(O)c21 [Nar, naringenin] | 1.2×10^4 | 1.8×10^2 |
| COc1cc(C(=O)O)ccc1O [Van, vanillic acid] | 7.7×10^4 | 3.1×10^2 |
